These are literature values, as cited in patent US20100151018A1, “SUSTAINED-RELEASE LEVETIRACETAM COMPOSITION AND PREPARATION PROCESS” (RD- Pharmagal, priority 2007, published 2010).

Molecules are shown by their SMILES. In brackets after ≈: the same amount, converted by molar mass.

Experiment in series [1]: not given
The source holds these as a separate data set.

Turning to `CC[C@@H](C(N)=O)N1CCCC1=O` [levetiracetam, S-enantiomer of a-ethyl-2-oxo-1-pyrrolidine acetamide], the plasma half-life (in adults) was 7 h. In addition, the bioavailability entry (oral administration of immediate-release tablets) is “approximately 100%”. For the same compound, the solubility in water result in series [1] is reported as “approximately 104.0 g/100 ml”.

As to `NC(=O)N1c2ccccc2CC(=O)c2ccccc21` [oxcarbazepine], in series [1], the solubility in water is 308 mg/L (≈ 1220 µM).
